Patent US20230391881A1, “COMPOSITIONS AND METHODS FOR OVERCOMING DR5-INDUCED IMMUNE EVASION BY SOLID TUMORS” (University of Virginia Patent Foundation, priority 2020, published 2023)
*1 amine or outer side, *2 acyl side, *3 side chain or, on linkers, in order; H or OH if unused. Where a SMILES comes first, the peptide text is derived from it. Bridges are numbered along the chain shown (N, C = ends). Roman numbers before positions name the chains, in order. [ ]: non-standard residue; d: D form. The star is where a group is joined. Actinocin(9to1) = Cc1c2oc3c(C)ccc(C(=O)[*:1])c3nc-2c(C(=O)[*:2])c(N)c1=O; NMeV = CN[C@H](C(=O)O)C(C)C; Cbz = O=C(OCc1ccccc1)*; Sar = CNCC(=O)O

Tests used:
MDA-MB-436 cells = test: Flow cytometry of surface PD-L1 on tumor cells treated with DR5 agonist antibodies (FIG. 20B); type: cell-based, human
Protocol: FIGS. 20A-20C. (FIG. 20A) 3 biological replicates of total PD-L1 and GAPDH from triple negative breast cancer cell (MDAMB-436) and ovarian cell (OVCAR-3) lysates treated with lexatumumab for 6 hours. (FIG. 20B) Raw mean fluorescent intensity (MFI) and % positive PD-L1 counts from the cells treated with indicated DR5 agonist antibodies. MFI values are shown on the top of solid color bars. There are multiple instances (shown on the top) where despite having lower % positive PD-L1 population, MFI values were higher after indicated DR5 agonist treatments. As an example, in MDA-MB-436 cells treated with tigatuzumab and lexatumumab, lexatumumab treated cells had higher % positive PD-L1 population (9.32 vs 11.97), however MFI was higher in tigatuzumab treated population (107.54 vs 45.87). (FIG. 20C) KMTR2 treated (50 μg, 4 doses) UCD52 TNBC PDX tumors were stained for PD-L1 using immunohistochemistry (IHC). 3 additional representative images are shown. Also see FIG. 1L.
(§1) Flow cytometry. The cell surface expression of PD-L1, CD47, huDR5, muDR5, CD8, CD4, CD25 etc. was analyzed by flow cytometry. Overnight grown tumors were trypsinized and suspended in FACS buffer (PBS containing 2% FBS). Single cell suspensions were then incubated with primary DR4/DR5 antibodies for 1 hour at 4° C. with gentle mixing. Following wash with FACS buffer, the cells were then incubated with fluorescently labeled anti-Rabbit antibody for 1 hour. Cells were washed and flow cytometry was performed using a BD FACSCALIBUR™ flow cytometer. The data was analyzed by FCS Express (De Novo Software, Los Angeles, California, United States of America) and FlowJo.
PD-L1 surface expression analysis of tumor derived cells. The cell surface expression of PD-L1 from tumor-derived cell was analyzed by flow cytometry. Isolated cells were suspended in FACS buffer (PBS containing 1% FBS). The single cell suspension was then incubated with primary PD-L1 antibodies (1:400 dilution) for 1 hour at 4° C. with gentle mixing. […] Following 3 times wash with FACS buffer, the cells were then incubated with fluorescently labeled (alexa 488) anti-Rabbit secondary antibody for 1 hour. Cells were then washed 3-4 times with FACS buffer and flow cytometry was performed using BD FACSCALIBUR™. The data was analyzed by FCS Express (De Novo Software) and FlowJo software.

PD-L1 = test: Western blotting / flow cytometry of PD-L1 and regulators in tumor cells; type: cell-based, human; conditions: for reversal of PD-L1 stability generated by DR5 agonists: MDA-MB-436 cells pretreated 0-8 hours with inhibitor, then DR5 agonist 6 hours
Protocol: Western Blotting. Cells were cultured overnight in tissue culture-treated 6-well plates prior to treatment. After antibody treatment for 48 hours or another indicated time, cells were rinsed with PBS and then lysed with RIPA buffer supplemented with protease inhibitor cocktail (ThermoFisher Scientific). Centrifugation at 14000 rpm for 30 minutes cleared lysates and protein was quantified by PIERCE™ BCA Protein Assay Kit (ThermoFisher Scientific). Western blotting was performed using the Bio-Rad SDS-PAGE Gel system. Briefly, 30 μg of protein was resolved on 10% Bis-Tris gels and then transferred onto PVDF membrane. Membranes were blocked for one hour at room temperature in TBS+0.1% Tween (TBST) with 5% non-fat dry milk. Membranes were probed overnight at 4° C. with primary antibodies. Membranes were washed three times in TBST and then incubated with anti-rabbit or anti-mouse secondary antibodies (1/10,000 dilution, coupled to peroxidase) for 1 hour at room temperature. Membranes were then washed three times with TBST and immunocomplexes were detected with SUPERSIGNAL™ West Pico Chemiluminescent Substrate (ThermoFisher Scientific). Images were taken using a Bio-Rad Gel Doc Imager system.
as §1

PD-L1-PD-1 interaction = test: PD-1/PD-L1 tumor cell-Jurkat cell co-culture luciferase reporter assay; type: cell-based, human; conditions: tumor cells pretreated with ROCK1 inhibitor then DR5 agonist
Protocol: PD-1/PD-L1 reporter assay. […] The original kit contains PD-1 effector Jurkat T cells stably express human PD-1 and NFAT-induced luciferase, while PD-L1 aAPC/CHO-K1 cells stably express human PD-L1 and a cell surface protein designed to activate cognate TCRs in an antigen-independent manner. […] Antibodies blocking PD-1-PD-L1 interaction removes inhibitory signals, resulting in luciferase activation. […] Next day, medium was removed from the culture plate and cells were treated with diluted DR5 agonist antibodies. […] Glo response NFAT-luc2/PD1 Jurkat cells (Promega) were re-suspended in assay buffer and incubated with 1 μg/ml anti-CD3 for 2 hours to activate PD1 Jurkat cells. […] After 6 hours of co-culture, assay plates were removed from the incubator; content of each well were mixed thoroughly with the help of multi-channel pipette and then transferred to a white opaque assay plate. 10 mg/ml luciferase reagent was prepared and loaded into the plate reader, which injects 50 μl reagent in each well and measures luminescence immediately. Data was analyzed using Microsoft Excel software. Wherever indicated, inhibitors (ERK, STAT3, Caspase, ROCK1 etc.) were added 2-3 hrs prior to DR5 agonist antibodies in 96 well culture of tumors as described herein.

4T1 tumors = test: Tumor regression in 4T1 syngeneic TNBC tumor models; type: in vivo, mouse; conditions: BALB/c mice, 4T1 tumors; MD5-1 50 μg i.p., GSK269962 2 mg/kg into the tumors (FIG. 4K)
Protocol: FIGS. 4A-4K. DR5 agonist activated ROCK1 functions to help PD-L1 surface mobilization. (FIGS. 4A and 4B) KMTR2 and lexatumumab treated MDA-MB-436 and OVCAR3 (respectively) lysates for indicated early time points were analyzed for caspase-8, caspase-3, ROCK1, pMLC, PARP, PD-L1 and CMTM6 etc. as indicated. Vertical arrows indicate sequential kinetics of caspase-8, ROCK1, and caspase-3 activation, arrows with “n.s.” below them indicate nonspecific band by ROCK1 antibody. (FIG. 4C) OVCAR3 cells were treated with pMLC activating ionophore A23187 (positive control) and lexatumumab ±ROCK1 inhibitors or ±rDR5 or ±rFOLR1. Lysates were later analyzed for ROCK1, pMLC, caspase-3 and PARP with GAPDH as loading control. (FIG. 4D) MDA-MB-436 and OVCAR3 cells were treated with indicated ROCK1 inhibitors 2 hours prior to DR5 agonist KMTR2 treatment. After 4 hours flow cytometry was used to analyze surface PD-L1. […] Relative luciferase signal was quantified and plotted after subtraction of background signal from untreated cells. […] Tumor volumes were quantified at indicated days by caliper measurements. […] Statistical significance in FIG. 4J was determined by unpaired student t-test and in FIG. 4K using two-tailed […] Wilcoxon Mann-Whitney test. […]
FIGS. 6A-6M. […] CD8/CD45 and CD4/CD45 expressing cells were measured by flow cytometry. […] Harvested tumors homogenized followed by quantitation. […]

| Compound | reversal of PD-L1 stability generated by DR5 agonists (PD-L1) | luciferase activity in co-culture reporter assay in presence of ROCK1 inhibitors (PD-L1-PD-1 interaction) | also measured |
| --- | --- | --- | --- |
| tigatuzumab: Monospecific Antibody, Human DR5 activator; VL and VH SEQ ID NOs: 3 and 4 | – | – | PD-L1 mean fluorescent intensity (MFI) (MDA-MB-436 cells; MDA-MB-436 cells treated with DR5 agonist antibody (FIG. 20B)): 107.54; % positive PD-L1 population (MDA-MB-436 cells; MDA-MB-436 cells treated with DR5 agonist antibody, raw flow cytometry counts (FIG. 20B)): 9.32% |
| C[C@@H]1C[C@@H]([C@H](O)CC2CC(=O)NC(=O)C2)C(=O)[C@@H](C)C1 [Cycloheximide] | did not also reversed PD-L1 stability | – | – |
| CC1=C(C(=O)Nc2cc3cn[nH]c3cc2F)C(c2ccc(C(F)(F)F)cc2)CC(=O)N1 (centres unmarked) [GSK429286, N-(6-Fluoro-1H-indazol-5-yl)-6-methyl-2-oxo-4-[4-(trifluoromethyl)phenyl]-3,4-dihydro-1H-pyridine-5-carboxamide] | – | Increased average luciferase intensity | – |
| CC(C)C[C@@H](C=O)NC(=O)[C@H](CC(C)C)NC(=O)[C@H](CC(C)C)NC(=O)OCc1ccccc1 [MG132] (Cbz-Leu-Leu-Leu-aldehyde) | – | – | PD-L1 stability with proteasome inhibition (MG132) (PD-L1; cell surface or total lysates): increased overall PD-L1 |
| CCn1c(-c2nonc2N)nc2cnc(Oc3cccc(NC(=O)c4ccc(OCCN5CCOCC5)cc4)c3)cc21 [GSK269962, N-(3-{[2-(4-Amino-1,2,5-oxadiazol-3-yl)-1-ethyl-1H-imidazo[4,5-c]pyridin-6-yl]oxy}phenyl)-4-[2-(morpholin-4-yl)ethoxy]benzamide] | – | Increased average luciferase intensity | Tumor regression efficacy (tumor volume) (4T1 tumors): ineffective |
| Cc1c2oc3c(C)ccc(C(=O)N[C@@H]4C(=O)N[C@H](C(C)C)C(=O)N5CCC[C@H]5C(=O)N(C)CC(=O)N(C)[C@@H](C(C)C)C(=O)O[C@@H]4C)c3nc-2c(C(=O)N[C@@H]2C(=O)N[C@H](C(C)C)C(=O)N3CCC[C@H]3C(=O)N(C)CC(=O)N(C)[C@@H](C(C)C)C(=O)O[C@@H]2C)c(N)c1=O [actinomysin-D] (I: T[dV]P[Sar][NMeV] / II: T[dV]P[Sar][NMeV]; ester I:1-I:C, II:1-II:C; linker I:N-II:N via Actinocin(9to1)) | did not also reversed PD-L1 stability | – | – |
